Test results as given in ChEMBL document CHEMBL2429810, “Heteroannelated and 7-deoxygenated goniofufurone mimics with antitumour activity: design, synthesis and preliminary SAR studies” (Bioorg Med Chem Lett, 2013).

How the values were obtained:
MRC5 = test: Antiproliferative activity against human MRC5 cells after 72 hrs by MTT assay; type: cell-based; conditions: MRC5, 72 h
HL-60 = test: Antiproliferative activity against human HL60 cells after 72 hrs by MTT assay; type: functional, cell-based; conditions: HL-60, 72 h
HeLa = test: Antiproliferative activity against human HeLa cells after 72 hrs by MTT assay; type: functional, cell-based
Raji [1] = test: Antiproliferative activity against human Raji cells after 72 hrs by MTT assay; type: functional, cell-based
K562 = test: Antiproliferative activity against human K562 cells after 72 hrs by MTT assay; type: functional, cell-based; conditions: K562, 72 h
Jurkat = test: Antiproliferative activity against human Jurkat cells after 72 hrs by MTT assay; type: functional, cell-based
Raji [2] = test: Ratio of doxorubicin IC50 to compound IC50 for human Raji cells; type: functional

Compound	IC50 (MRC5) [µM]	IC50 (HL-60) [µM]	IC50 (HeLa) [µM]	IC50 (Raji [1]) [µM]	IC50 (K562) [µM]	IC50 (Jurkat) [µM]	Ratio IC50 (Raji [2])
O=C1C[C@H]2O[C@H](Cc3ccccc3)[C@H](O)[C@H]2O1	> 100						
O=C1C[C@H]2O[C@H]([C@H](O)c3ccccc3)[C@H](O)[C@H]2O1	> 100	> 100					
O=C1C[C@@H]2O[C@@H](Cc3ccccc3)[C@@H](O)[C@@H]2O1	> 100	0.17	1.21	0.03	0.02	0.12	100
O=C1C[C@H]2O[C@H](Cc3ccccc3)[C@H](OCc3ccccc3)[C@H]2O1	> 100	0.56	4.32	9.48	0.14	1.01	
Cc1ccccc1[C@H](c1ccccc1)[C@H]1O[C@@H]2CC(=O)O[C@@H]2[C@H]1O	> 100	11.7	11.4	5.67	1.56	21.4	
O=C1C[C@H]2O[C@@H]3[C@@H](c4ccccc4)c4ccccc4CO[C@@H]3[C@H]2O1	> 100	0.78	> 100	0.46	1.43	0.074	
O=C1C[C@@H]2O[C@H]3[C@H](c4ccccc4)c4ccccc4CO[C@H]3[C@@H]2O1	> 100	11.7	6.56	15.9	1.21	18.4	
